Laboratory results published in BindingDB's records for doi:10.1016/0196-9781(94)90118-x (Tulane University, 1994).
Positions of bridges follow the written chain, without caps; N, C: chain ends. Non-standard residues stand in square brackets, D forms with d. Residues, ends and D or L forms follow the SMILES beside them. ξ: configuration not given here. 2Nal = N[C@@H](Cc1ccc2ccccc2c1)C(=O)O; d2Nal = N[C@H](Cc1ccc2ccccc2c1)C(=O)O; ξPhg = NC(C(=O)O)c1ccccc1; Abu = CC[C@H](N)C(=O)O

Assays:
[1] = biological target: T1, Somatostatin receptor type 5 (Rattus norvegicus, UniProt P30938)
T1 sequence (P30938 whole entry): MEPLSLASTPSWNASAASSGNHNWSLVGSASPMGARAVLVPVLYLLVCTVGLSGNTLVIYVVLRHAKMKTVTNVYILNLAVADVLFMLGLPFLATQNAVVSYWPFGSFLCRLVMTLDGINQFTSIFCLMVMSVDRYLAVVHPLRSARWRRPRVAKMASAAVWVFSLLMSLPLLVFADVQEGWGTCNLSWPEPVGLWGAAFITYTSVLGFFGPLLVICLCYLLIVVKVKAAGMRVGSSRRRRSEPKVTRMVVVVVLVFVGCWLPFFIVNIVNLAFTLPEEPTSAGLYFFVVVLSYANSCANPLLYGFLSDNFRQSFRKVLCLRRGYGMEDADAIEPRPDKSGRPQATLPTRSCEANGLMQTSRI

[2] = biological target: Somatostatin receptor type 3 (Rattus norvegicus, UniProt P30936)
Chain of Somatostatin receptor type 3 (P30936 whole entry): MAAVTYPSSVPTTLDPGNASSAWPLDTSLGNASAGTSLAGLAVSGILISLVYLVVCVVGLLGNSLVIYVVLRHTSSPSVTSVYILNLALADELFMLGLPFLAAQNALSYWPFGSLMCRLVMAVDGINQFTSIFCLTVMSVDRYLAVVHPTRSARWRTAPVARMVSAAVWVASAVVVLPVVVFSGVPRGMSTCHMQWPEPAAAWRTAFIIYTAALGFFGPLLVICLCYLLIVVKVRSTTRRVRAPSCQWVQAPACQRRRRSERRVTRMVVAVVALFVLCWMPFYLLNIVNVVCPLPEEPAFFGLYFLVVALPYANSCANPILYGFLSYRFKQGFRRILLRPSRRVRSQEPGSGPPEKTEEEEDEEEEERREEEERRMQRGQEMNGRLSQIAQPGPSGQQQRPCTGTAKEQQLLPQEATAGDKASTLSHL

[3] = biological target: Somatostatin receptor type 2 (Rattus norvegicus, UniProt P30680)
Chain of Somatostatin receptor type 2 (P30680 whole entry): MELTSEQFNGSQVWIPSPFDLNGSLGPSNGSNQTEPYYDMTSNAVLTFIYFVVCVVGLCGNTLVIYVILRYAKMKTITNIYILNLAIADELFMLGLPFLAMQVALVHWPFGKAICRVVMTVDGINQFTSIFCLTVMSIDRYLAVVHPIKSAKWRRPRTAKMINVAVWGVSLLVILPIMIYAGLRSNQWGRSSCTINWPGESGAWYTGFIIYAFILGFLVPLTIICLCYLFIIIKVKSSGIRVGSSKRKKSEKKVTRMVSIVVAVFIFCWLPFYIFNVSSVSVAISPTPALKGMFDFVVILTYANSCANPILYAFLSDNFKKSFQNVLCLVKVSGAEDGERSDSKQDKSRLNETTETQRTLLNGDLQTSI

[4] = biological target: Somatostatin receptor type 4 (Rattus norvegicus, UniProt P30937)
Chain of Somatostatin receptor type 4 (P30937 whole entry): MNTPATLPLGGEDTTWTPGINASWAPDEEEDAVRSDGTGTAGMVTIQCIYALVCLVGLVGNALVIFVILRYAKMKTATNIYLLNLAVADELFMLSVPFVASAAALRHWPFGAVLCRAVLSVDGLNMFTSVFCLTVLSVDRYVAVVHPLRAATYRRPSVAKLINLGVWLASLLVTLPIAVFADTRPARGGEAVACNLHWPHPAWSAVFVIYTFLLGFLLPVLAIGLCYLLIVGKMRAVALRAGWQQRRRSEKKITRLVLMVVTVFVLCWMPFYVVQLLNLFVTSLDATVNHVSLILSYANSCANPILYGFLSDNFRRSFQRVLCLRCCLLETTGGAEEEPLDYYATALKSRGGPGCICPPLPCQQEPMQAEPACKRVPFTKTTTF

[5] = biological target: Somatostatin receptor type 1 (Rattus norvegicus, UniProt P28646)
Chain of Somatostatin receptor type 1 (P28646 whole entry): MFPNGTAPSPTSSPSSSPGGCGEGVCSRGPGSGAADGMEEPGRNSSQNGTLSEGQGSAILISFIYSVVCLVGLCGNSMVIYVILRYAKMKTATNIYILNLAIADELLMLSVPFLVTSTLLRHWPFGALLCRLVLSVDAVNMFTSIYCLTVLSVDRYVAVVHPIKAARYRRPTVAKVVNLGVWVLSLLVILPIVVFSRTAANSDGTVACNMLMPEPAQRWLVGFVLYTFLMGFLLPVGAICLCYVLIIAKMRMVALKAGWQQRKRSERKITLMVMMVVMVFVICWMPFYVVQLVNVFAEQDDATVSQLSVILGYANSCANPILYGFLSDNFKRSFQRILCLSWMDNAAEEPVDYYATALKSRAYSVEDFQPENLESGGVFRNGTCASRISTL

Row | Ki [1] [nM] | Ki [2] [nM] | Ki [3] [nM] | Ki [4] [nM] | Ki [5] [nM] | SMILES
1 | 18 | 0.42 | 32 |  |  | C[C@@H](O)[C@H](NC(=O)[C@H](Cc1ccccc1)NC(=O)[C@@H](NC(=O)[C@H](CCCCN)NC(=O)[C@@H](Cc1c[nH]c2ccccc12)NC(=O)[C@H](Cc1ccccc1)NC(=O)[C@H](Cc1ccccc1)NC(=O)[C@H](N)Cc1ccccc1)[C@@H](C)O)C(N)=O [CAS_133073-82-2] (H-[dF]FF[dW]KTFT-NH2)
2 | 158 | 0.02 | 1000 | 43 | > 10000 | CC(C)[C@H](NC(=O)[C@H](CCCCN)NC(=O)[C@@H](Cc1c[nH]c2ccccc12)NC(=O)[C@H](Cc1ccc(O)cc1)NC(=O)[C@H](Cc1ccccc1)NC(=O)[C@H](N)Cc1ccccc1)C(=O)N[C@@H](Cc1ccccc1)C(=O)N[C@H](Cc1ccc2ccccc2c1)C(N)=O [CAS_150155-61-6] (H-[dF]FY[dW]KVF[d2Nal]-NH2)
3 | 1000 |  |  |  |  | CC(C)[C@H](NC(=O)[C@H](CCCCN)NC(=O)[C@H](Cc1c[nH]c2ccccc12)NC(=O)[C@H](Cc1ccc(O)cc1)NC(=O)[C@@H](N)CS)C(=O)N[C@@H](CS)C(=O)N[C@H](C(N)=O)[C@@H](C)O [D-Nal-Cys-Tyr-D-Trp-Lys-Val-Cys-Thr-NH2] (H-CYWKVCT-NH2)
4 |  | 11 | 0.01 |  | > 10000 | CC[C@@H]1NC(=O)[C@H](CCCCN)NC(=O)[C@@H](Cc2c[nH]c3ccccc23)NC(=O)[C@H](Cc2ccc(O)cc2)NC(=O)[C@@H](NC(=O)[C@H](N)Cc2ccccc2)CSSC[C@@H](C(=O)N[C@@H](Cc2ccc3ccccc3c2)C(N)=O)NC1=O [D-Phe-Cys-Tyr-D-Trp-Lys-Abu-Cys-Nal-NH] (H-[dF]CY[dW]K[Abu]C[2Nal]-NH2; disulfide 2-7)
5 |  | 0.03 | 46 | 1.2 | > 10000 | CC(C)[C@H](NC(=O)[C@H](CCCCN)NC(=O)[C@@H](Cc1c[nH]c2ccccc12)NC(=O)[C@H](Cc1ccc(O)cc1)NC(=O)[C@H](Cc1ccccc1)NC(=O)[C@H](N)Cc1ccccc1)C(=O)N[C@@H](Cc1ccccc1)C(=O)N[C@H](C(N)=O)[C@@H](C)O [D-Phe-Phe-Tyr-D-Trp-Lys-Val-Phe-Thr-NH2] (H-[dF]FY[dW]KVFT-NH2)
6 | 77 |  |  |  |  | CC(C)[C@H](NC(=O)[C@H](CCCCN)NC(=O)[C@H](Cc1c[nH]c2ccccc12)NC(=O)[C@H](Cc1ccc(O)cc1)NC(=O)[C@H](Cc1ccccc1)NC(=O)C(N)c1ccccc1)C(=O)N[C@@H](Cc1ccccc1)C(=O)N[C@H](C(N)=O)[C@@H](C)O (stereo partly drawn) [D-Phe-Phe-Tyr-D-Trp-Lys-Val-Phe-Thr-NH2] (H-[ξPhg]FYWKVFT-NH2)

Row | SMILES | Ki [1] [nM] | Ki [2] [nM] | Ki [3] [nM] | Ki [4] [nM] | Ki [5] [nM]
7 | CC(C)[C@@H]1NC(=O)[C@H](CCCCN)NC(=O)[C@@H](Cc2c[nH]c3ccccc23)NC(=O)[C@H](Cc2ccc(O)cc2)NC(=O)[C@@H](NC(=O)[C@H](N)Cc2ccc3ccccc3c2)CSSC[C@@H](C(=O)N[C@H](C(N)=O)[C@@H](C)O)NC1=O [D-Nal-Cys-Tyr-D-Trp-Lys-Val-Cys-Thr-NH2] |  | 4.9 | 1.6 |  | > 10000
